Values quoted from earlier work in patent publication US20100226886A1, “Combinations of MTP Inhibitors with Cholesterol Absorption Inhibitors or Interferon for Treating Hepatitis C” (priority 2007, published 2010).
“Also recorded” adds a separate entry of the source. Like-named read-outs stand apart in the source and are kept apart here.

Tests used:
[1] = animal model for homozygous familial hypercholesterolemia; for example at 25 mg/day
[2] = clinical studies, 80 mg/day or greater
[3] = in vivo

O=C(NC1CCN(CCCCC2(C(=O)NCC(F)(F)F)c3ccccc3-c3ccccc32)CC1)c1ccccc1-c1ccc(C(F)(F)F)cc1 [BMS-201038, N-(2,2,2-Trifluorethyl)-9-[4-[4-[[[4′-(trifluoromethyl) [1,1′biphenyl]-2-Yl]carbonyl]amino]-1-piperidinyl]butyl]9H-fluorene-9-carboxamide]
adverse events (25 mg/day): gastrointestinal disturbances, abnormalities in liver function, and hepatic steatosis | adverse events (25 mg/day, listed as AEGR-733): gastrointestinal disorders, abnormalities in liver function and/or hepatic steatosis | plasma cholesterol levels [1]: effectively reduced plasma cholesterol levels in a dose dependent manner

Cc1cc(C)c2c3ccccc3n(Cc3ccc([C@@H](C(=O)N[C@H](CO)c4ccccc4)C4CCCC4)cc3)c2n1 [implitapide, (2S)-2-cyclopentyl-2-[4-[(2,4-dimethyl-9H-pyrido[2,3-b]indol-9-yl)methyl]phenyl]-N-[(1S)-2-hydroxy-1-phenylethyl]ethanamide]
efficacy for hypercholesterolemia [2]: therapeutically effective for hypercholesterolemia | adverse events (80 mg/day or greater (80 mg/day and 160 mg/day)): gastrointestinal disturbances, abnormalities in liver function, and hepatic steatosis; also recorded: gastrointestinal disorders, abnormalities in liver function and/or hepatic steatosis

NC(=O)c1ncn([C@@H]2O[C@H](CO)[C@@H](O)[C@H]2O)n1 [ribavirin]
increase of sustained response rate (HCV; ribavirin added to interferon or peginterferon): two- to three-fold | effect on HCV (HCV; ribavirin by itself): little effect on HCV | side effects in patients [3]: red cell haemolysis to a variable degree in almost all patients

Alpha interferon
side effects in patients [3]: multiple neuropsychiatric effects
